Where a SMILES comes first, the peptide text is derived from it. The star is where a group is joined. Palmitoyl = CCCCCCCCCCCCCCCC(=O)*
Columns and labels:
Format in all cases: cell-based
[1] = tested on: human organotypical skin explant cultures (hOSECs); assay: LDH cytotoxicity assay in human organotypical skin explant cultures
Protocol: (§1) In this case healthy and aged human organotypical skin explant cultures (hOSECs) were used as experimental systems.
(§2) The aged hOSEC was obtained by exposition of the healthy hOSEC to hydrocortisone (5 μg/mL) for the first five days of the study.
The total number of treatment groups was as follows: • 1. Control group (negative control): Untreated hOSEC. • 2. Aged hOSEC: hOSECs treated with hydrocortisone at 5 μg/mL (Abraham A, Roga G. (2014) Topical steroid-damaged skin. Indian J Dermatol. 59(5), 456-9.) • 3. Aged hOSEC+Product A (cream, this is, placebo): hOSECs treated with hydrocortisone at 5 μg/mL and incubated with product A (10 μL). • 4. […]
The LDH Cytotoxicity test is a colorimetric assay that quantitatively measures lactate dehydrogenase (LDH), a stable cytosolic enzyme that is released into the culture medium supernatant upon damage of the cytoplasmic membrane. The released LDH in culture medium supernatants is measured for 30 minutes coupled enzymatic reaction: LDH oxidizes lactate to pyruvate which then reacts with the tetrazolium salt WST-1 to form formazan. The increase in the amount of formazan measured in the culture supernatant directly correlates to the increase in the number of lysed cells (damage) in the skin explant. […]
The results of this assay were calculated considering the negative control, this is, untreated hOSEC as 100% of the LDH normal concentration.

[2] = tested on: human organotypical skin explant cultures (hOSECs); assay: Resazurin assay in human organotypical skin explant cultures; details: 5 μg/mL
Protocol: as §1, §2
The total number of treatment groups was as follows: • 1. Control group (negative control): Untreated hOSEC. • 2. Aged hOSEC: hOSECs treated with hydrocortisone at 5 μg/mL (Abraham A, Roga G. (2014) Topical steroid-damaged skin. Indian J Dermatol. 59(5), 456-9.) • 3. Aged hOSEC+Product A (cream, this is, placebo): hOSECs treated with hydrocortisone at 5 μg/mL and incubated with product A (10 μL). • 4. Aged hOSEC+Product B (cream with Pal-SEQ ID NO: 1-NH2 at a concentration of 0.005 mg/mL): hOSECs treated with hydrocortisone at 5 μg/mL and incubated with Product B (10 μL).
The total duration of the assay was of 10 days (days 1 to 10). Hydrocortisone was applied in the appropriate or corresponding groups each day on days 1 to 5. […]
For the resazurin assay, the skin explants were treated with 6 μM of resazurin in NaCl solution for 1 hour. […] The resorufin formed was quantified in a fluorometer plate reader.
The fluorescent signal was monitored using 530-560 nm excitation wavelength and 590 nm emission wavelength.
The results of the resazurin assay were calculated considering the negative control, untreated healthy hOSECs, as 100% viability. […]

[3] = tested on: HDFa (Human Dermal Fibroblasts, adult) cells; assay: MTT viability assay (cytotoxicity) in HDFa cells; details: 0.001-0.01 mg/mL, 24 h, vs basal state
Protocol: (§3) The cytotoxicity of peptide Pal-SEQ ID NO: 1-NH2 was analysed by means of viability assay in HEKa (Human Epidermal Keratinocytes, adult) and HDFa (Human Dermal Fibroblasts, adult) cells.
(§4) Cytotoxicity was assessed by means of the MTT assay. Briefly HEKa and HDFa cells were seeded in 96-well plates at a concentration of 1×10^5 cells/mL and incubated in Epilife Medium supplemented with 1% (v/v) EDGS and 1% (v/v) of Penicillin/Streptomycin (for HEKa cells) and Medium 106 supplemented with 2% (v/v) of Low Serum Growth Supplement (LSGS) (for HDFa cells) for 24 h at 37° C., 5% CO2 and saturated humidity. Cells were then treated with different concentrations of peptide Pal-SEQ ID NO: 1-NH2 (0.001 mg/mL, 0.005 mg/mL, 0.01 mg/mL, 0.05 mg/mL, and 0.1 mg/mL for HEKa cells; and 0.001 mg/mL, 0.005 mg/mL and 0.01 mg/mL for HDFa cells) in triplicates, for MTT evaluation. […] The plates were placed on a shaker for 5 minutes for complete solubilisation of the crystals and then the absorbance at 450 nm of each well was determined using the microplate reader Multiskan FC, which is directly proportional to the number of living cells in culture. Absorbance values were normalized using the data obtained for non-treated cells (basal state).

[4] = tested on: HEKa (Human Epidermal Keratinocytes, adult) cells; assay: MTT viability assay (cytotoxicity) in HEKa cells; details: 0.001-0.1 mg/mL, 24 h, vs basal state
Protocol: as §3, §4

| reduction of Resorufin percentage with respect to the Control group [2] [%] | SMILES | adverse effect in hOSECs (LDH, plasma membrane damage) ([1]; hydrocortisone 5 μg/mL, days 1 to 5) | viability of HDFa cells [3] | toxicity deduced from LDH cytotoxicity assay and resazurin assay ([1]; cream with 0.005 mg/mL peptide on aged hOSEC) | viability of HEKa cells [4] |
| --- | --- | --- | --- | --- | --- |
| 10 | C[C@]12CCC(=O)C=C1CC[C@@H]1[C@@H]2[C@@H](O)C[C@@]2(C)[C@H]1CC[C@]2(O)C(=O)CO [hydrocortisone, reference compound] | did not produce any adverse effect | – | – | – |
| – | CCCCCCCCCCCCCCCC(=O)N[C@@H](Cc1c[nH]cn1)C(=O)N[C@@H](Cc1ccc(O)cc1)C(=O)N[C@@H](CCCNC(=N)N)C(=O)N[C@@H](C)C(N)=O [Pal-SEQ ID NO: 1-NH2, Pal-His-Tyr-Arg-Ala-NH2] (Palmitoyl-HYRA-NH2) | – | did not alter viability | not toxic | did not alter viability |
